Measured values from ChEMBL document CHEMBL1139145, “Inhibition of cancer cell adhesion by heterochiral Pro-containing RGD mimetics” (Bioorg Med Chem Lett, 2007).
Residues, ends and D or L forms follow the SMILES beside them.

Target: Integrin alpha-V/beta-3 (Homo sapiens, UniProt P05106+P06756)
Test: Inhibition of integrin alpha-v-beta-3 receptor-mediated human SK-MEL-24 cell adhesion to fibronectin by fluorimetry
Format: protein-complex assay

Chain of Integrin alpha-V/beta-3 (P05106 27-788 limits assumed): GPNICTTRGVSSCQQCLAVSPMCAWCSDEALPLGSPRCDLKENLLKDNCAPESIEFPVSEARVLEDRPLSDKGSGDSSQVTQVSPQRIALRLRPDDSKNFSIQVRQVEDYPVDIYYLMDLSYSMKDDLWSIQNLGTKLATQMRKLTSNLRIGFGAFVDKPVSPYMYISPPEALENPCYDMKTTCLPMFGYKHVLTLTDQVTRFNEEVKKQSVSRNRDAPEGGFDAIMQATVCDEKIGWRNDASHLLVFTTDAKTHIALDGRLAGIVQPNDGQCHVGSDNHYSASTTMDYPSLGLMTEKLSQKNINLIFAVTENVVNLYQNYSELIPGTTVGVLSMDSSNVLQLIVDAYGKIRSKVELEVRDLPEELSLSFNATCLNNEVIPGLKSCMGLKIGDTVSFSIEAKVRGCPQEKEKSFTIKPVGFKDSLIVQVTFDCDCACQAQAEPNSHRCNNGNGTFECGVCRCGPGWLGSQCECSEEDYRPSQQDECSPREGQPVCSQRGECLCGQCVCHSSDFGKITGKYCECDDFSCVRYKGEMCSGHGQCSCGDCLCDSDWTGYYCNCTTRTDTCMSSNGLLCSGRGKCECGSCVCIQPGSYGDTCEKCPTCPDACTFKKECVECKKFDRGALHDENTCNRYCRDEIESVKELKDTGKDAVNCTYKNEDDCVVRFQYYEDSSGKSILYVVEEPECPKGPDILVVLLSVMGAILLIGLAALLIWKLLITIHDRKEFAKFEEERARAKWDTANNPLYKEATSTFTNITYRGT
Chain of Integrin alpha-V/beta-3 (P06756 31-889 limits assumed): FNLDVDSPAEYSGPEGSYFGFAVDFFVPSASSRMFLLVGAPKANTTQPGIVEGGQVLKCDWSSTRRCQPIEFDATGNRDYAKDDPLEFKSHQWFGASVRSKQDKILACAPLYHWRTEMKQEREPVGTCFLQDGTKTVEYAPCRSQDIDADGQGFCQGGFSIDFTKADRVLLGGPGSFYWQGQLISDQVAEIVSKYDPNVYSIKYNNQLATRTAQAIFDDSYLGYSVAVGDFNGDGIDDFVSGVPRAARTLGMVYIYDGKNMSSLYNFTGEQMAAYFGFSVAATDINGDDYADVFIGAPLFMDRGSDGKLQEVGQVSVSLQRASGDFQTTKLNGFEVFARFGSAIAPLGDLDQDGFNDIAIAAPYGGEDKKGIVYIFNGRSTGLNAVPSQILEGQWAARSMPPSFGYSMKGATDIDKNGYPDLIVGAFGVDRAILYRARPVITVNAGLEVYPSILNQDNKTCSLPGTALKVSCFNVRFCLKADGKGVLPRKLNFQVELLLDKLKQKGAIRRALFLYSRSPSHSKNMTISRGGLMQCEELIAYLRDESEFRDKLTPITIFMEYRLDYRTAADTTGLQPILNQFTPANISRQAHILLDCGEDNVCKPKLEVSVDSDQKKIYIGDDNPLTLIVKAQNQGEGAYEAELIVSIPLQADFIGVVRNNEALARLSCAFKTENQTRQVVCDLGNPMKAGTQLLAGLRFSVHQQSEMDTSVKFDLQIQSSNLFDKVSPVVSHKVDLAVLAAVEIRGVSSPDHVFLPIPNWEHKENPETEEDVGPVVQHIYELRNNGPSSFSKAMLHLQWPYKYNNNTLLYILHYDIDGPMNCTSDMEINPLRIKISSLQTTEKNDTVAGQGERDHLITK
Chain of Integrin alpha-V/beta-3 (P06756 891-1048 limits assumed): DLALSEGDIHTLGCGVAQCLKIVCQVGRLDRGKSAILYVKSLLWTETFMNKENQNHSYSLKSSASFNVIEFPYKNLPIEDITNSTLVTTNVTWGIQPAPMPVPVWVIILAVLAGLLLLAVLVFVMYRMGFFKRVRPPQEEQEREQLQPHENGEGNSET

| SMILES | IC50 |
| --- | --- |
| Cc1ccc(S(=O)(=O)N[C@@H](CCCNC(=N)N)C(=O)N2CCC[C@H]2C(=O)N[C@@H](CC(=O)O)C(=O)NCc2ccccc2)cc1 | 100000 nM |
| CCCNC(=O)[C@H](CC(=O)O)NC(=O)[C@H]1CCCN1C(=O)CCCN=C(N)N | 20000 nM |
| CC(=O)N[C@@H](CC(=O)O)C(=O)N[C@@H](CCCN=C(N)N)C(=O)NCC(=O)N[C@@H](CC(=O)O)C(=O)N[C@@H](CO)C(=O)O (Ac-DRGDS-OH) | 20 nM |
| N=C(N)NCCC(=O)N1CCC[C@@H]1C(=O)N[C@@H](CCC(=O)O)C(=O)NCc1ccccc1 | 35 nM |
| Cc1ccc(S(=O)(=O)N[C@@H](CCCN=C(N)N)C(=O)N2CCC[C@@H]2C(=O)N[C@@H](CC(=O)O)C(=O)NCc2ccccc2)cc1 | 150 nM |
| NC(N)=NCCCCC(=O)N1CCC[C@@H]1C(=O)N[C@@H](CC(=O)O)C(=O)NCc1ccccc1 | 230000 nM |
| NC(N)=NCCCC(=O)N1CCC[C@@H]1C(=O)NCCC(=O)O | 1200 nM |

Continued, values first:

| IC50 | SMILES |
| --- | --- |
| > 100000 nM | N=C(N)NCCC(=O)N1CCC[C@@H]1C(=O)N[C@@H](CC(=O)O)C(=O)NCc1ccccc1 |
| 2600 nM | N=C(N)NCCCC(=O)N1CCC[C@@H]1C(=O)N[C@@H](CCC(=O)O)C(=O)NCc1ccccc1 |
| 26 nM | N=C(N)NCCCC(=O)N1CCC[C@@H]1C(=O)N[C@@H](CC(=O)O)C(=O)NCc1ccccc1 |
